Reference: patent US10770169B2, “Method of providing a treatment to a subject based on a dynamic pathway map” (THE REGENTS OF THE UNIVERSITY OF CALIFORNIA, priority 2010, dated 2020)
Like-named read-outs stand apart in the source and are kept apart here.

Assays:
[1] = tested on: panel of 55 breast cancer cell lines; assay: Cell growth inhibition assay (Cell Titer Glo, 72 h, 9 doses; GI50, TGI, LC50); format: cell-based, human; settings: Homo sapiens, read-out: GI50 (converted)
[2] = tested on: luminal, basal, claudin-low and ERBB2AMP breast cancer cell lines; assay: Associations of clinically relevant subtypes and response (non-parametric ANOVA or t-test on GI50 ranks); format: cell-based, human; settings: Table 6; most sensitive subtype, FDR p<0.20
Method in brief: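 Significance was set at FDR p<0.20 after combining p-values across three test sets. Subtype–response associations came from rank-based non-parametric ANOVA or t-tests on GI50. For three-class comparisons, post-hoc tests of each group against the rest identified the most sensitive group, with FDR correction.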

[3] = 600MPE cell line, censored GI50 values
[4] = AU565, AU565 cell line, censored GI50 values
[5] = BT-20, BT20 cell line, censored GI50 values
[6] = BT-474, BT474 cell line, censored GI50 values
[7] = BT-483, BT483 cell line, censored GI50 values
[8] = CAMA-1, CAMA1 cell line, censored GI50 values
[9] = HCC38, HCC38 cell line, censored GI50 values
[10] = HCC70, HCC70 cell line, censored GI50 values
[11] = HCC1143, HCC1143 cell line, censored GI50 values
[12] = HCC1187, HCC1187 cell line, censored GI50 values
[13] = HCC1419, HCC1419 cell line, censored GI50 values
[14] = HCC1428, HCC1428 cell line, censored GI50 values
[15] = HCC1500, HCC1500 cell line, censored GI50 values
[16] = HCC1806, HCC1806 cell line, censored GI50 values
[17] = HCC1937, HCC1937 cell line, censored GI50 values
[18] = HCC1954, HCC1954 cell line, censored GI50 values
[19] = HCC2185 cell line, censored GI50 values
[20] = HCC3153 cell line, censored GI50 values
[21] = MCF7, MCF7 cell line, censored GI50 values
[22] = MDA-MB-134-VI, MDAMB134VI cell line, censored GI50 values
[23] = MDA-MB-175-VII, MDAMB175VII cell line, censored GI50 values
[24] = MDA-MB-361, MDAMB361 cell line, censored GI50 values
[25] = MDA-MB-415, MDAMB415 cell line, censored GI50 values
[26] = MDA-MB-436, MDAMB436 cell line, censored GI50 values
[27] = MDA-MB-453, MDAMB453 cell line, censored GI50 values
[28] = MDA-MB-468, MDAMB468 cell line, censored GI50 values
[29] = SK-BR-3, SKBR3 cell line, censored GI50 values
[30] = SUM52PE, SUM52PE cell line, censored GI50 values
[31] = SUM149PT, SUM149PT cell line, censored GI50 values
[32] = SUM185PE, SUM185PE cell line, censored GI50 values
[33] = SUM1315MO2, SUM1315MO2 cell line, censored GI50 values
[34] = SUM-159-PT, SUM159PT cell line, censored GI50 values
[35] = T47D, T47D cell line, censored GI50 values
[36] = UACC-812, UACC812 cell line, censored GI50 values
[37] = ZR-75-1, ZR751 cell line, censored GI50 values
[38] = ZR-75B, ZR75B cell line, censored GI50 values

CO[C@H]1C[C@@H]2CC[C@@H](C)[C@@](O)(O2)C(=O)C(=O)N2CCCC[C@H]2C(=O)O[C@H]([C@H](C)C[C@@H]2CC[C@@H](OC(=O)C(C)(CO)CO)[C@H](OC)C2)CC(=O)[C@H](C)/C=C(\C)[C@@H](O)[C@@H](OC)C(=O)[C@H](C)C[C@H](C)/C=C/C=C/C=C/1C [Temsirolimus]
GI50 [1, 3]: 18200 nM | GI50 [1, 4]: 100 nM | GI50 ([1]; AU565, cell line AU565): 100 nM | GI50 [1, 5]: 776 nM | GI50 ([1]; BT-20, cell line BT20): 776 nM | GI50 [1, 6]: 13.5 nM | GI50 ([1]; BT-474, cell line BT474): 13.5 nM | GI50 [1, 7]: 66100 nM | GI50 ([1]; BT-483, cell line BT483): 66100 nM | GI50 [1, 8]: 43.7 nM | GI50 ([1]; CAMA-1, cell line CAMA1): 43.7 nM | GI50 [1, 9]: 389 nM | GI50 ([1]; HCC38, cell line HCC38): 389 nM | GI50 [1, 10]: 407 nM | GI50 ([1]; HCC70, cell line HCC70): 407 nM | GI50 [1, 11]: 1580 nM | GI50 ([1]; HCC1143, cell line HCC1143): 1580 nM | GI50 [1, 12]: 794 nM | GI50 ([1]; HCC1187, cell line HCC1187): 794 nM | GI50 ([1]; HCC1395, HCC1395 cell line, censored GI50 values): 12600 nM | GI50 ([1]; HCC1395, cell line HCC1395): 12600 nM | GI50 [1, 13]: 52.5 nM | GI50 ([1]; HCC1419, cell line HCC1419): 52.5 nM | GI50 [1, 14]: 6170 nM | GI50 ([1]; HCC1428, cell line HCC1428): 6170 nM | GI50 [1, 15]: 24500 nM | GI50 ([1]; HCC1500, cell line HCC1500): 24500 nM | GI50 [1, 16]: 20400 nM | GI50 ([1]; HCC1806, cell line HCC1806): 20400 nM | GI50 [1, 17]: 437 nM | GI50 ([1]; HCC1937, cell line HCC1937): 437 nM | GI50 [1, 18]: 219 nM | GI50 ([1]; HCC1954, cell line HCC1954): 219 nM | GI50 [1, 19]: 13.2 nM | GI50 [1, 20]: 20000 nM | GI50 ([1]; LY2 cell line, censored GI50 values): 209 nM | GI50 [1, 21]: 1550 nM | GI50 ([1]; MCF7, cell line MCF7): 1550 nM | GI50 [1, 22]: 166 nM | GI50 [1, 23]: 2290 nM | GI50 [1, 24]: 251 nM | GI50 [1, 25]: 75.9 nM | GI50 [1, 26]: 53700 nM | GI50 [1, 27]: 100 nM | GI50 [1, 28]: 5620 nM | GI50 [1, 29]: 53.7 nM | GI50 [1, 30]: 0.417 nM | GI50 [1, 31]: 6170 nM | GI50 [1, 32]: 1.1 nM | GI50 [1, 33]: 1120 nM | GI50 [1, 34]: 229 nM | GI50 [1, 35]: 1410 nM | GI50 [1, 36]: 575 nM | GI50 [1, 37]: 66100 nM | GI50 [1, 38]: 107 nM | GI50 ([1]; cell line 600MPE): 18200 nM | GI50 ([1]; cell line HCC2185): 13.2 nM | GI50 ([1]; cell line HCC3153): 20000 nM | GI50 ([1]; cell line LY2): 209 nM | Subtype specificity [2]: Luminal/ERBB2AMP

Cc1[nH]c2ccccc2c1CCNCc1ccc(/C=C/C(=O)NO)cc1 [LBH589]
GI50 [1, 3]: 186 nM | GI50 [1, 4]: 105 nM | GI50 ([1]; AU565, cell line AU565): 105 nM | GI50 [1, 5]: 389 nM | GI50 ([1]; BT-20, cell line BT20): 389 nM | GI50 [1, 6]: 34.7 nM | GI50 ([1]; BT-474, cell line BT474): 34.7 nM | GI50 [1, 7]: 72.4 nM | GI50 ([1]; BT-483, cell line BT483): 72.4 nM | GI50 [1, 8]: 61.7 nM | GI50 ([1]; CAMA-1, cell line CAMA1): 61.7 nM | GI50 [1, 9]: 35.5 nM | GI50 ([1]; HCC38, cell line HCC38): 35.5 nM | GI50 [1, 10]: 77.6 nM | GI50 ([1]; HCC70, cell line HCC70): 77.6 nM | GI50 [1, 11]: 83.2 nM | GI50 ([1]; HCC1143, cell line HCC1143): 83.2 nM | GI50 [1, 12]: 174 nM | GI50 ([1]; HCC1187, cell line HCC1187): 174 nM | GI50 [1, 13]: 58.9 nM | GI50 ([1]; HCC1419, cell line HCC1419): 58.9 nM | GI50 [1, 14]: 135 nM | GI50 ([1]; HCC1428, cell line HCC1428): 135 nM | GI50 [1, 15]: 162 nM | GI50 ([1]; HCC1500, cell line HCC1500): 162 nM | GI50 [1, 16]: 151 nM | GI50 ([1]; HCC1806, cell line HCC1806): 151 nM | GI50 [1, 17]: 191 nM | GI50 ([1]; HCC1937, cell line HCC1937): 191 nM | GI50 [1, 18]: 372 nM | GI50 ([1]; HCC1954, cell line HCC1954): 372 nM | GI50 [1, 19]: 69.2 nM | GI50 [1, 20]: 295 nM | GI50 [1, 21]: 79.4 nM | GI50 ([1]; MCF7, cell line MCF7): 79.4 nM | GI50 [1, 22]: 66.1 nM | GI50 [1, 23]: 389 nM | GI50 [1, 24]: 50.1 nM | GI50 ([1]; MDA-MB-361, cell line MDAMB361): 50.1 nM | GI50 [1, 25]: 39.8 nM | GI50 ([1]; MDA-MB-415, cell line MDAMB415): 39.8 nM | GI50 [1, 26]: 251 nM | GI50 ([1]; MDA-MB-436, cell line MDAMB436): 251 nM | GI50 [1, 27]: 49 nM | GI50 ([1]; MDA-MB-453, cell line MDAMB453): 49 nM | GI50 [1, 28]: 234 nM | GI50 ([1]; MDA-MB-468, cell line MDAMB468): 234 nM | GI50 [1, 29]: 55 nM | GI50 ([1]; SK-BR-3, cell line SKBR3): 55 nM | GI50 [1, 30]: 170 nM | GI50 ([1]; SUM52PE, cell line SUM52PE): 170 nM | GI50 [1, 31]: 316 nM | GI50 ([1]; SUM149PT, cell line SUM149PT): 316 nM | GI50 [1, 32]: 77.6 nM | GI50 ([1]; SUM185PE, cell line SUM185PE): 77.6 nM | GI50 [1, 33]: 251 nM | GI50 [1, 34]: 132 nM | GI50 ([1]; SUM-159-PT, cell line SUM159PT): 132 nM | GI50 [1, 35]: 151 nM | GI50 ([1]; T47D, cell line T47D): 151 nM | GI50 [1, 36]: 129 nM | GI50 ([1]; UACC-812, cell line UACC812): 129 nM | GI50 [1, 37]: 195 nM | GI50 ([1]; ZR-75-1, cell line ZR751): 195 nM | GI50 [1, 38]: 83.2 nM | GI50 ([1]; ZR-75B, cell line ZR75B): 83.2 nM | GI50 ([1]; cell line 600MPE): 186 nM | GI50 ([1]; cell line HCC2185): 69.2 nM | GI50 ([1]; cell line HCC3153): 295 nM | GI50 ([1]; cell line MDAMB134V): 66.1 nM | GI50 ([1]; cell line MDAMB175V): 389 nM | GI50 ([1]; cell line SUM1315MO): 251 nM | Subtype specificity [2]: Luminal
